# Measurements from patent US5138101A, “Recovery of high-boiling aldehydes from rhodium-catalyzed hydroformylation processes” (Eastman Kodak Company, priority 1991, dated 1992).
# What was measured:
# [1] = Partitioning (partition coefficient, Kp) of hydroformylation products and hydroformylation solvent between hydroformylation solvent phase and alkanol/water extraction solution phase; format: physicochemical
# Text: The extraction process described herein is the equilibration of a particular compound dissolving into two separate liquid phases. The effectiveness of the present extraction process may be measured in terms of the partition coefficient (Kp) for a compound "X" which is defined as: [formula] […] High Kp values give high extraction efficiencies requiring lower amounts of extraction solution. Similarly, it is desirable that the Kp of the hydroformylation solvent be a low value. This simplifies purification of the aldehyde products down-stream. In the hydroformylation of diolefins to dialdehydes, it also is desirable to have Kp values for the dialdehyde products larger than the Kp values of the intermediate mono-aldehyde mono-olefin (formyl-olefin) intermediate formed in the hydroformylation reaction. This permits recycling of the formyl-olefin to the hydroformylation reactor in the hydroformylation solvent for further reaction to the desired dialdehyde product, while selectively extracting the desired di-aldehyde product. Likewise, for the same reason, it is desirable to have low Kp values for the olefin or polyolefin feedstocks used in the process.
# The extraction examples were carried out in a 300 mL, 3-neck, glass flask equipped with a Teflon magnetic stir bar, a thermometer to measure the temperature of the liquid, a septum for the use of a syringe, a heating mantle and a nitrogen bubbler blanket for the system. […] […] The mixture was stirred at 25° C. for 30 minutes to reach equilibrium, stirring was stopped, and the mixture was allowed to separate into 2 layers (phases) over a 30 minute period of time. […] Samples of each phase were taken with a syringe and chromatographed on a Hewlett Packard Model 5730 capillary FID gas chromatograph. The instrument used a 30 meter DB-1 column (Supelco.) with a programming rate of a 4 minute hold at 70° C. with a programming rate of 8° C./minute to 250° C. The calculations for the weights of hydroformylation products in each phase were carried out using standard procedures using the dodecane as an internal standard for the catalyst layer and methanol as the internal standard for the aqueous layer. The initial volumes of the two phases were used for estimation of the volumes of the two phases at equilibrium to obtain the concentrations of the products in each phase.
# The partition coefficients (Kp) were calculated for the C9-enal and C10-dial products for equilibrium between the dodecane hydroformylation solvent and the extraction solution phases at 25° C.
# The two phases in the flask were heated to and maintained at 53° C. with stirring for 30 minutes to reach equilibrium. The mixture was allowed to separate into 2 layers at 53° C. and each layer was sampled and analyzed as described above. […] The partitioning procedure was repeated at 70° C.
# [2] = Extraction and back-extraction with p-diisopropylbenzene or 1,7-octadiene: rhodium concentration in both phases, composition of extraction solution; format: physicochemical
# Protocol: Examples […] illustrate yet another embodiment of the process of the present invention wherein extraction solution containing dissolved rhodium is back-extracted with either hydroformylation solvent or olefinic feedstock to reduce the concentration of rhodium in the extraction solution.
# The general procedure described in Examples 31-48 was used to extract 60.5 mL of hydroformylation product solution obtained by the hydroformylation of 1,7 octadiene in the presence of a catalyst system comprising rhodium and BISBI phosphine (Reference Example 9). […] The extraction flask was charged with the hydroformylation product solution, 37 mL methanol, 12 mL water and […] [Na] provided as sodium oleate.
# For Example 88, the extraction mixture was stirred at room temperature for 30 minutes and then drained into a calibrated, addition funnel and allowed to stand for about five minutes to permit phase separation. The volume of the hydroformylation product solution (organic) phase was 45 mL and the volume of the extraction solution phase was 65 ml. Samples of each phase were taken for rhodium and product composition analyses.
# For Example 89, the extraction solution phase separated in Example 88 was added to a clean 250 mL flask along with 30 mL of p-diisopropylbenzene and the mixture was stirred at 50° C. for 30 minutes, was allowed to stand at 50° C. for about 5 minutes to permit phase separation and then each phase was separated and analyzed for composition and rhodium concentration.
# For Example 90, the extraction solution separated in Example 89 was added to a clean 250 mL flask along with another 30 mL of p-diisopropylbenzene hydroformylation solvent. The mixture was agitated at 50° C. for thirty minutes, allowed to stand at 50° C. for 5 minutes to permit phase separation and each phase was analyzed for composition and rhodium concentration.
# This scheme would be useful in a counter-current extraction method for recycling recovered hydroformylation product solution as well as in using the olefinic feed to the reactor as a back extraction solvent for recovering soluble rhodium from the methanol/water extract.
# Example 91 was carried out using the procedure described in Examples 88. The flask was charged with 62 mL of a hydroformylation product solution (Reference Example 10) having a rhodium concentration 166 mg/L and containing 3.01 g of C9-enal, 12.69 g of C10-dial and 37.84 grams of p-diisopropylbenzene. Methanol (37 ml), water (16 ml) and 78 mg Na (as sodium 2-ethylhexanoate) were added to the flask. This mixture was stirred at 50° C. for 30 minutes and then allowed to stand for 5 minutes at 50° C. to permit phase separation. The hydroformylation product solution (organic) phase and the extraction solution phase were both sampled and analyzed for rhodium concentration. The 2 phases were drained into a clean, graduated addition funnel and the volumes of the two phases were measured. The volume of the organic layer was 43 mL and the extraction solution layer was 62 mL.
# For Example 92, the extraction solution phase produced in Example 91 was added to a clean, 250 mL flask along with 30 mL of p-diisopropylbenzene and the mixture was stirred at 50° C. for 30 minutes and then allowed to separate into two phases. The two phases were analyzed for rhodium concentration and composition. The mixture was drained into a clean addition funnel to separate the two phases. For Example 93, the extraction solution phase of Example 92 and 30 mL of 1,7-octadiene were added to a clean, 250 mL flask. This mixture was stirred at 50° C. for 30 minutes and then allowed to separate into two phases which were analyzed for rhodium concentration.
# The amounts (g) of C9-enal, C10-dial in the sample of hydroformylation product solution initially extracted and in the methanol/water extraction solutions resulting from Examples 91, 92 and 93 are given in Table XIII. The ratio given in Table XIII is the weight ratio of C10-dial:C9-enal. […]
# [3] = Example 92, after p-diisopropylbenzene back-extraction
# [4] = Example 93, after 1,7-octadiene back-extraction
compound,measurement,setting,value
CCCCC(CC)COC(=O)c1ccccc1C(=O)OCC(CC)CCCC (stereo not drawn) [di-(2-ethylhexyl) phthalate],Partition Coefficient,"[1]; Example 16, Ref. Ex. 23, MeOH:water 3:1, 50° C.",0.0448
same,Partition Coefficient,"[1]; Example 17, Ref. Ex. 23, MeOH:water 1:1, 50° C.",0.0037
c1ccc2c(c1)CCCC2 [tetrahydronaphthalene],Partition Coefficient,"[1]; Example 15, Ref. Ex. 22, MeOH:water 1.5:1, 52° C.",0.079
same,Partition Coefficient,"[1]; Example C-6, Ref. Ex. 18, DEG:water 3:1, 25° C.",0.092
isomeric noneneal [C9-enal],Composition of Extraction Solution (amount),[2]; Example 91,1.39 g
same,Composition of Extraction Solution (amount),[2]; [3],0.51 g
same,Composition of Extraction Solution (amount),[2]; [4],0.18 g
C1CCC2CCCCC2C1 (stereo not drawn) [decahydronaphthalene],Partition Coefficient,"[1]; Example C-4, Ref. Ex. 17, DEG:water 1:1, 25° C.",0.0050
same,Partition Coefficient,"[1]; Example C-5, Ref. Ex. 17, DEG:water 1:1, 70° C.",0.034
isomeric decanedialdehyde [C10-dial],Composition of Extraction Solution (amount),[2]; Example 91,11.67 g
same,Weight ratio of C10-dial:C9-enal in extraction solution,[2]; Example 91,8.40
same,Weight ratio of C10-dial:C9-enal in extraction solution,[2]; Example 92,18.06
same,Composition of Extraction Solution (amount),[2]; [3],9.21 g
same,Weight ratio of C10-dial:C9-enal in extraction solution,[2]; Example 93,33.94
same,Composition of Extraction Solution (amount),[2]; [4],6.11 g
